From patent US20250332266A1, “COMPOUNDS FOR THE DEGRADATION OF EGFR KINASE” (BeiGene Switzerland GmbH, priority 2022, published 2025)
Where two headings read alike, the source gives them in different places.

Key:
[1] = amide bond, 15-membered ring, 25.0 °C
[2] = biological target: T1, EGFR L858R (BaF3-L858R) (Homo sapiens, UniProt P00533, L858R); assay: EGFR degradation, HTRF total-EGFR assay, BaF3-L858R cells; type: cell-based; conditions: 16 h treatment
T1 construct: host or cells: BaF3
Procedure: BaF3-L858R (abbv. L858R) cell were purchased from Kangyuan Bochuang Biotechnology (Beijing) Co., Ltd.
(§1) H1975-#8 and BaF3-L858R cells are treated with compounds diluted in 0.1% DMSO cell culture medium on day 2, incubate for 16 h, 37° C., 5% CO2. the final concentration of compounds in all assay starts with 10 uM, 5-fold dilution, total 8 doses were included.
(§2) Total-EGFR cellular kit (64NG1PEH) were used for evaluating EGFR degradation.
(§3) After 16 h treatment, for H1975-#8 cells, add 100 μL HTRF 1× lysis buffer to each well; for BaF3-L858R cells, add 20 μL 4× lysis buffer to each well; seal the plate and incubate 1 hour at room temperature on a plate shaker; Once the cells are lysed, 16 μL of cell lysate are transferred to a PE 384-well HTRF detection plate; 4 μL of pre-mixed HTRF antibodies are added to each well; cover the plate with a plate sealer, spin 1000 rpm for 1 min, incubate overnight at room temperature; read on BMG PheraStar with HTRF protocol (337 nm-665 nm-620 nm).
(§4) The inhibition (degradation) percentage of the compound was calculated by the following equation:
(§5) Inhibition percentage of Compound=100−100×(Signal−low control)/(High control−low control), wherein signal=each test compound group
(§6) High control=Cell group with added DMSO and without compound, indicating microplate readings without EGFR degradation.
(§7) Imax (Dmax) is the maximum percentage of inhibition (degradation).
(§8) The IC50 (DC50) value of a compound can be obtained by fitting the following equation
(§9) Wherein, X and Y are known values, and IC50, Hillslope, Top and Bottom are the parameters obtained by fitting with software. Y is the inhibition percentage (calculated from the equation), X is the concentration of the compound; IC50 is the concentration of the compound when the 50% inhibition is reached. The smaller the IC50 value is, the stronger the inhibitory ability of the compound is. Vice versa, the higher the IC50 value is, the weaker the ability the inhibitory ability of the compound is; Hillslope represents the slope of the fitted curve, generally around 1*; Bottom represents the minimum value of the curve obtained by data fitting, which is generally 0%±20%; Top represents the maximum value of the curve obtained by data fitting, which is generally 100%±20%. The experimental data were fitted by calculating and analyzing with Dotmatics data analysis software.

[3] = biological target: T2, EGFR L858R/C797S (H1975-clone #8) (Homo sapiens, UniProt P00533, C797S/L858R); assay: EGFR degradation, HTRF total-EGFR assay, H1975-clone #8 (L858R/C797S); type: cell-based; conditions: 16 h treatment
T2 construct: expressed in transfected cells; host or cells: H1975 (clone #8), lentiviral transduction, endogenous EGFR knocked out
T2 sequence (P00533 25-1210 C797S/L858R): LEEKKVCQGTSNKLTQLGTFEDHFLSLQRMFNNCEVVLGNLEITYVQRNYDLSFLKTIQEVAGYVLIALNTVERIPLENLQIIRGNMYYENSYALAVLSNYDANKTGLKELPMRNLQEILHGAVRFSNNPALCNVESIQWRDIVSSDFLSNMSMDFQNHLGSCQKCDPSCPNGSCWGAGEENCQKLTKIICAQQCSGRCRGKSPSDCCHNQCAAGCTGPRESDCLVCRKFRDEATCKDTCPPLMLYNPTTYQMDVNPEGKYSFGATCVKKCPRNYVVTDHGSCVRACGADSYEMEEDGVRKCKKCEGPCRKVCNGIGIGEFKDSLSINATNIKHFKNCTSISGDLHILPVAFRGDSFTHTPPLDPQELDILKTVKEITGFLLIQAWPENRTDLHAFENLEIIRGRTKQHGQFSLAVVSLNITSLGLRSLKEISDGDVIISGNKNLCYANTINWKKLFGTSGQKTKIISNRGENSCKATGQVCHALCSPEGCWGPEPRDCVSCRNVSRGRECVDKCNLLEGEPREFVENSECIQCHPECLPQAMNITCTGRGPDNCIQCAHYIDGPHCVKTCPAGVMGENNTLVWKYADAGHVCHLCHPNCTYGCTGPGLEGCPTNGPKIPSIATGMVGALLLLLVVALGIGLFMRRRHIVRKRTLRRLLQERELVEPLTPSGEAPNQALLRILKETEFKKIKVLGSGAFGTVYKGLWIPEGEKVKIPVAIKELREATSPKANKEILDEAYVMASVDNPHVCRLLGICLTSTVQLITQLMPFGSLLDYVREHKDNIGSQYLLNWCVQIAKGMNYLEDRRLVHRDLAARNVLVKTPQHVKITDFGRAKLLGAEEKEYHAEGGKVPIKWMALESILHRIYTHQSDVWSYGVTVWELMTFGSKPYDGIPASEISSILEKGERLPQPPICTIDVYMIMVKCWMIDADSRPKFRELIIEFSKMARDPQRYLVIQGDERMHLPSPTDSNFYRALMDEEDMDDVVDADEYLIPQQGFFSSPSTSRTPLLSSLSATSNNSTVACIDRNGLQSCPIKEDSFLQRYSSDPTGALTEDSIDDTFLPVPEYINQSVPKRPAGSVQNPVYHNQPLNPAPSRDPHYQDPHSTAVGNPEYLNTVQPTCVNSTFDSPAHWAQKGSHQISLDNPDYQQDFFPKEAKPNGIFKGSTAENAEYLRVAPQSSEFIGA
Procedure: H1975-clone #8 (L858R/C797S): EGFR-L858R/C797S were stably expressed in H1975 cell lines by lentivirus-mediated over-expression, respectively. The EGFR over-expressed cells then underwent knockout, in which the EGFR targeting sgRNA was designed to only target the endogenous EGFR copies and preserve the exogenous EGFR copies. Followed by the knockout, the edited H1975 cells were seeded in 96 well plates at the concentration of 1 cell/well, cultured for about 2 weeks to allow single clones formation. The formed clones were screened by DNA sequencing and whole exon sequencing analysis for the desired edition. H1975-clone #8 were finally confirmed as homozygous L858R/C797S EGFR clones.
as §1, §2, §3, §4, §5, §6, §7, §8, §9

T1 sequence (P00533 25-1210 L858R): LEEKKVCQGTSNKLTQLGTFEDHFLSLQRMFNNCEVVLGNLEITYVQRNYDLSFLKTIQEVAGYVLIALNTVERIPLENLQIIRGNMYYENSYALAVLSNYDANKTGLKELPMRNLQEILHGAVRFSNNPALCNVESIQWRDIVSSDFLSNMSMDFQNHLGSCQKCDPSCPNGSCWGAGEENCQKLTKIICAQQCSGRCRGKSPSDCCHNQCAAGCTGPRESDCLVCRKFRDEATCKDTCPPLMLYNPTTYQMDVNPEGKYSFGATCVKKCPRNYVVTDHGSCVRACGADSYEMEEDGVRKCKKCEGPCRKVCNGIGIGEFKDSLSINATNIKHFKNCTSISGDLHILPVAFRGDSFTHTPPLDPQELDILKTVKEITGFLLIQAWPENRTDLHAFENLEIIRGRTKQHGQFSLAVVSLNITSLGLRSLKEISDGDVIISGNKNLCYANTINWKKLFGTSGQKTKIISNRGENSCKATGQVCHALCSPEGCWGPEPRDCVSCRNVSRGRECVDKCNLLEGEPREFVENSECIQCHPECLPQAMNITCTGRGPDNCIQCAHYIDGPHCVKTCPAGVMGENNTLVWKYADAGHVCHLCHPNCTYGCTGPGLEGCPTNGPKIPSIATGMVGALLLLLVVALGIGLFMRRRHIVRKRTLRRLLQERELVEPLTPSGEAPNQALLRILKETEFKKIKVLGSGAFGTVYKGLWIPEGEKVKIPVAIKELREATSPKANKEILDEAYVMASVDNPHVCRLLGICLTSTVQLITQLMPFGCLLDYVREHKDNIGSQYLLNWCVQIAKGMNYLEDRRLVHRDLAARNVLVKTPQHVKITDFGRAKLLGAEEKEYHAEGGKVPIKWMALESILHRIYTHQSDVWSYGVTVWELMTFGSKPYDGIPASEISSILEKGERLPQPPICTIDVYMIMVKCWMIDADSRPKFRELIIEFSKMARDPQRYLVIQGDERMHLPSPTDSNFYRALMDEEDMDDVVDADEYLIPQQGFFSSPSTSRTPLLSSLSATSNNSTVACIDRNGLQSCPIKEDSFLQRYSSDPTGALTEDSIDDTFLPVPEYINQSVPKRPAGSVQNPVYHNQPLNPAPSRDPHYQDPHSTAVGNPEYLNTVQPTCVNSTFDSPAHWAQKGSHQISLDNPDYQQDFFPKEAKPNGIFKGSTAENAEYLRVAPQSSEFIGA

| DC50 [2] [nM] | Dmax [2] [%] | SMILES | other results |
| --- | --- | --- | --- |
| – | – | COC(=O)c1cc(C)nc(-c2cnn(C)c2OCC2CC(Cn3c(=N)[nH]c4ccc(Br)cc43)C2)c1 (stereo not shown) | ring closure, isolated yield ([1]; the molecule shown is the open-chain precursor, LiHMDS, THF, 116.0 mM): 74.7% |
| – | – | Cc1cc(C(=O)O)cc(-c2cnn(C)c2OCC2CC(Cn3c(=N)[nH]c4ccc(CN5CCN(C(=O)OC(C)(C)C)CC5)cc43)C2)n1 (stereo not shown) | ring closure, isolated yield ([1]; the molecule shown is the open-chain precursor, HATU/DIEA, DMF, 70.0 mM): 50.1% |
| – | – | Cc1cc2cc(n1)-c1cnn(C)c1OCC1CC(C1)Cn1c(nc3ccc(N4CCN(C(=O)OC(C)(C)C)CC4=O)cc31)NC2=O | ring closure, isolated yield ([1]; from Cc1cc(C(=O)O)cc(-c2cnn(C)c2OCC2CC(Cn3c(N)nc4ccc(N5CCN(C(=O)OC(C)(C)C)CC5=O)cc43)C2)n1, HATU/DIEA, DCM, 34.0 mM): 51.6% |
| 30.7 | 88.9 | Cc1cc2cc(n1)-c1cnn(C)c1OC[C@H]1C[C@@H](CN3/C(=N/C2=O)Nc2ccc(N4C[C@H](C)N(C5CCN(c6ccc(C7CCC(=O)NC7=O)nc6C)CC5)C[C@@H]4C)cc23)C1 (stereo partly drawn) [Example 139, 3-(5-(4-((2S,5S)-4-((7^1s,7^3R,E)-1^1,2^6-dimethyl-3-oxo-5^2,5^3-dihydro-1^1H,5^1H-9-oxa-4-aza-5(2,1)-benzo[d]imidazola-2(2,4)-pyridina-1(4,5)-pyrazola-7(1,3)-cyclobutanacyclononaphane-5^6-yl)-2,5-dimethylpiperazin-1-yl)piperidin-1-yl)-6-methylpyridin-2-yl)piperidine-2,6-dione] | – |
| 37.8 | 90.6 | CCc1nc(C2CCC(=O)NC2=O)ccc1N1CCC(N2CCN(c3ccc4c(c3)N3C[C@H]5C[C@@H](COc6c(cnn6C)-c6cc(cc(C)n6)C(=O)/N=C/3N4)C5)CC2)CC1 (stereo partly shown) [Example 140, 3-(5-(4-(4-((7^1s,7^3s,E)-1^1,2^6-dimethyl-3-oxo-5^2,5^3-dihydro-1H,5^1H-9-oxa-4-aza-5(2,1)-benzo[d]imidazola-2(2,4)-pyridina-1(4,5)-pyrazola-7(1,3)-cyclobutanacyclononaphane-5^6-yl)piperazin-1-yl)piperidin-1-yl)-6-ethylpyridin-2-yl)piperidine-2,6-dione] | – |
| 11.9 | 85.1 | Cc1cc2cc(n1)-c1cnn(C)c1OC[C@H]1C[C@@H](CN3/C(=N/C2=O)Nc2ccc(N4CCN(C5CCN(c6c(C)cc(C7CCC(=O)NC7=O)nc6C)CC5)CC4)cc23)C1 (stereo partly shown) [Example 141, 3-(5-(4-(4-((7^1s,7^3s,E)-1^1,2^6-dimethyl-3-oxo-5^2,5^3-dihydro-1^1H,5^1H-9-oxa-4-aza-5(2,1)-benzo[d]imidazola-2(2,4)-pyridina-1(4,5)-pyrazola-7(1,3)-cyclobutanacyclononaphane-5^6-yl)piperazin-1-yl)piperidin-1-yl)-4,6-dimethylpyridin-2-yl)piperidine-2,6-dione] | DC50 [3]: 0.7 nM; Dmax [3]: 40.4% |
| 52.3 | 76.2 | Cc1cc2cc(n1)-c1cnn(C)c1OC[C@H]1C[C@@H](CN3/C(=N/C2=O)Nc2ccc(N4CCN(C5CCN(c6cc(F)c(C7CCC(=O)NC7=O)nc6C)CC5)CC4)cc23)C1 (stereo partly shown) [Example 142, 3-(5-(4-(4-((7^1s,7^3s,E)-1^1,2^6-dimethyl-3-oxo-5^2,5^3-dihydro-1^1H,5^1H-9-oxa-4-aza-5(2,1)-benzo[d]imidazola-2(2,4)-pyridina-1(4,5)-pyrazola-7(1,3)-cyclobutanacyclononaphane-5^6-yl)piperazin-1-yl)piperidin-1-yl)-3-fluoro-6-methylpyridin-2-yl)piperidine-2,6-dione] | – |
| 8.5 | 75.8 | CCc1cc(C2CCC(=O)NC2=O)ncc1N1CCC(N2CC(N3CCN(c4ccc5c(c4)N4C[C@H]6C[C@@H](COc7c(cnn7C)-c7cc(cc(C)n7)C(=O)/N=C/4N5)C6)CC3)C2)CC1 (stereo partly shown) [Example 143, 3-(5-(4-(3-(4-((7^1s,7^3s,E)-1^1,2^6-dimethyl-3-oxo-5^2,5^3-dihydro-1^1H,5^1H-9-oxa-4-aza-5(2,1)-benzo[d]imidazola-2(2,4)-pyridina-1(4,5)-pyrazola-7(1,3)-cyclobutanacyclononaphane-5^6-yl)piperazin-1-yl)azetidin-1-yl)piperidin-1-yl)-4-ethylpyridin-2-yl)piperidine-2,6-dione] | – |
| 3 | 80 | Cc1cc2cc(n1)-c1cnn(C)c1OC[C@H]1C[C@@H](CN3/C(=N/C2=O)Nc2ccc(N4CCN(C5CN(C6CCN(c7cc(F)c([C@H]8CCC(=O)NC8=O)c(F)c7)CC6)C5)C[C@H]4C)cc23)C1 [Example 148, (R)-3-(4-(4-(3-((R)-4-((7^1s,7^3S,E)-1^1,2^6-dimethyl-3-oxo-5^2,5^3-dihydro-1^1H,5^1H-9-oxa-4-aza-5(2,1)-benzo[d]imidazola-2(2,4)-pyridina-1(4,5)-pyrazola-7(1,3)-cyclobutanacyclononaphane-5^6-yl)-3-methylpiperazin-1-yl)azetidin-1-yl)piperidin-1-yl)-2,6-difluorophenyl)piperidine-2,6-dione] | – |
| 16 | 71.1 | CCc1nc(C2CCC(=O)NC2=O)ccc1N1CCC(N2CC(N3CCN(c4ccc5c(c4)N4C[C@H]6C[C@@H](COc7c(cnn7C)-c7cc(cc(C)n7)C(=O)/N=C/4N5)C6)CC3)C2)CC1 (stereo partly shown) [Example 149, 3-(5-(4-(3-(4-((7^1s,7^3s,E)-1^1,2^6-dimethyl-3-oxo-5^2,5^3-dihydro-1^1H,5^1H-9-oxa-4-aza-5(2,1)-benzo[d]imidazola-2(2,4)-pyridina-1(4,5)-pyrazola-7(1,3)-cyclobutanacyclononaphane-5^6-yl)piperazin-1-yl)azetidin-1-yl)piperidin-1-yl)-6-ethylpyridin-2-yl)piperidine-2,6-dione] | DC50 [3]: 3.3 nM; Dmax [3]: 52.2% |
| 11.9 | 73.5 | Cc1cc2cc(n1)-c1cnn(C)c1OC[C@H]1C[C@@H](CN3/C(=N/C2=O)Nc2ccc(N4CCN(C5CN(CCc6c(C)cc(C7CCC(=O)NC7=O)nc6C)C5)CC4)cc23)C1 (stereo partly shown) [Example 150, 3-(5-(2-(3-(4-((7^1s,7^3s,E)-1^1,2^6-dimethyl-3-oxo-5^2,5^3-dihydro-1^1H,5^1H-9-oxa-4-aza-5(2,1)-benzo[d]imidazola-2(2,4)-pyridina-1(4,5)-pyrazola-7(1,3)-cyclobutanacyclononaphane-5^6-yl)piperazin-1-yl)azetidin-1-yl)ethyl)-4,6-dimethylpyridin-2-yl)piperidine-2,6-dione] | DC50 [3]: 3.5 nM; Dmax [3]: 51.9% |
